Reference: the supplement of paper PMC10307832

How the values were obtained:
Assay in all cases: relative viability (nuclei count vs DMSO), 5 days (fraction); higher = more cells survive
[1] = compound: CN[C@@H]1C[C@H]2O[C@@](C)([C@@H]1OC)n1c3ccccc3c3c4c(c5c6ccccc6n2c5c31)C(=O)NC4 [Staurosporine] + Cc1cc(Nc2cc(N3CCN(C)CC3)nc(Sc3ccc(NC(=O)C4CC4)cc3)n2)n[nH]1 [Tozasertib] (partner 0.1 µM)
Method in brief: (§1)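 Relative viability was taken as the ratio of nuclei in treated wells to nuclei in vehicle wells. Lung cancer cell lines in 1536-well plates received compounds by pin tool one day after seeding, either one drug alone or a fixed anchor-drug dose plus five library-drug doses (not always all listed) in √10 steps. Nuclei were counted on 4× images after 5 days of treatment, and values are medians of duplicate plates.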

[2] = compound: CN[C@@H]1C[C@H]2O[C@@](C)([C@@H]1OC)n1c3ccccc3c3c4c(c5c6ccccc6n2c5c31)C(=O)NC4 [Staurosporine] + CCNC(=O)c1noc(-c2cc(C(C)C)c(O)cc2O)c1-c1ccc(CN2CCOCC2)cc1 [Luminespib] (partner 0.01 µM)
Method in brief: as §1

[3] = compound: O=c1[nH]cc(F)c(=O)[nH]1 [5-Fluorouracil] + NC(=O)Nc1cc(-c2cccc(F)c2)sc1C(=O)N[C@H]1CCCNC1 [AZD7762] (partner 0.2 µM)
Method in brief: as §1

[4] = compound: CC1=C(CC(=O)O)c2cc(F)ccc2/C1=C\c1ccc([S+](C)[O-])cc1 [Sulindac] + Cc1cc(Nc2cc(N3CCN(C)CC3)nc(Sc3ccc(NC(=O)C4CC4)cc3)n2)n[nH]1 [Tozasertib] (partner 0.1 µM)
Method in brief: as §1

## NCI-H1755
[1]; first compound 0.005 µM
  relative viability: 0.474
[1]; first compound 0.01581 µM
  relative viability: 0.311
[1]; first compound 0.05 µM
  relative viability: 0.207
[1]; first compound 0.1581 µM
  relative viability: 0.184
[1]; first compound 0.5 µM
  relative viability: 0.219
[2]; first compound 0.005 µM
  relative viability: 0.276
[2]; first compound 0.01581 µM
  relative viability: 0.214
[2]; first compound 0.05 µM
  relative viability: 0.155
[2]; first compound 0.1581 µM
  relative viability: 0.195
[2]; first compound 0.5 µM
  relative viability: 0.155
[3]; first compound 0.02 µM
  relative viability: 0.4
[3]; first compound 0.2 µM
  relative viability: 0.31
[3]; first compound 0.6325 µM
  relative viability: 0.285
[3]; first compound 2 µM
  relative viability: 0.28
[4]; first compound 0.08 µM
  relative viability: 0.52
[4]; first compound 0.253 µM
  relative viability: 0.586
[4]; first compound 0.8 µM
  relative viability: 0.573
[4]; first compound 2.53 µM
  relative viability: 0.593
[4]; first compound 8 µM
  relative viability: 0.694

## EPLC-272H
[1]; first compound 0.005 µM
  relative viability: 0.381
[1]; first compound 0.01581 µM
  relative viability: 0.17
[1]; first compound 0.05 µM
  relative viability: 0.147
[1]; first compound 0.1581 µM
  relative viability: 0.104
[1]; first compound 0.5 µM
  relative viability: 0.108
[2]; first compound 0.005 µM
  relative viability: 0.206
[2]; first compound 0.01581 µM
  relative viability: 0.0928
[2]; first compound 0.05 µM
  relative viability: 0.0679
[2]; first compound 0.1581 µM
  relative viability: 0.0575
[2]; first compound 0.5 µM
  relative viability: 0.075
[3]; first compound 0.02 µM
  relative viability: 0.243
[3]; first compound 0.2 µM
  relative viability: 0.122
[3]; first compound 0.6325 µM
  relative viability: 0.109
[3]; first compound 2 µM
  relative viability: 0.102
[4]; first compound 0.08 µM
  relative viability: 0.152
[4]; first compound 0.253 µM
  relative viability: 0.25
[4]; first compound 2.53 µM
  relative viability: 0.25
[4]; first compound 8 µM
  relative viability: 0.408
